Article PMC11768629, “Potential Interaction of Pinocembrin with Drug Transporters and Hepatic Drug-Metabolizing Enzymes” (Pharmaceuticals, 2025)

How the values were obtained:
BCRP = target: T1, BCRP (Homo sapiens, UniProt Q9UNQ0); assay: BCRP-mediated 3H-estrone sulfate transepithelial transport in Caco-2 cell monolayers; type: cell-based; details: pinocembrin, compared with vehicle control
T1 construct: Caco-2 cell monolayers, which express both P-gp and BCRP; host or cells: Caco-2
Protocol: The interactions of pinocembrin with P-gp and BCRP were determined by the measurement of P-gp-mediated ^3H-digoxin transport and BCRP-mediated ^3H-estrone sulfate transport in Caco-2 cell monolayers, which express both P-gp and BCRP [20].
P-gp- and BCRP-mediated transport were measured by the transepithelial transport of their substrates (^3H-digoxin for P-gp and ^3H-estrone sulfate for BCRP) in Caco-2 cell monolayers. […] Caco-2 cells were cultured on membrane inserts (Corning Inc., Corning, NY, USA) for 21 days. Cell monolayers showing transepithelial electrical resistance values > 600 Ω.cm^2 were included in the experiment. […] The basolateral side was replaced with a transport buffer. The sample from the basolateral side was transferred to vials containing a liquid scintillation cocktail to measure radioactivity by a β-counter (Packard BioScience, Wellesley, MA, USA).

hOAT1 = target: T2, hOAT1 (Homo sapiens, UniProt Q4U2R8); assay: hOAT1-mediated 6-CF uptake in hOAT1-MDCK cells (inhibitory potency and kinetics); type: cell-based
T2 construct: host or cells: MDCK
T2 sequence (Q4U2R8 1-563): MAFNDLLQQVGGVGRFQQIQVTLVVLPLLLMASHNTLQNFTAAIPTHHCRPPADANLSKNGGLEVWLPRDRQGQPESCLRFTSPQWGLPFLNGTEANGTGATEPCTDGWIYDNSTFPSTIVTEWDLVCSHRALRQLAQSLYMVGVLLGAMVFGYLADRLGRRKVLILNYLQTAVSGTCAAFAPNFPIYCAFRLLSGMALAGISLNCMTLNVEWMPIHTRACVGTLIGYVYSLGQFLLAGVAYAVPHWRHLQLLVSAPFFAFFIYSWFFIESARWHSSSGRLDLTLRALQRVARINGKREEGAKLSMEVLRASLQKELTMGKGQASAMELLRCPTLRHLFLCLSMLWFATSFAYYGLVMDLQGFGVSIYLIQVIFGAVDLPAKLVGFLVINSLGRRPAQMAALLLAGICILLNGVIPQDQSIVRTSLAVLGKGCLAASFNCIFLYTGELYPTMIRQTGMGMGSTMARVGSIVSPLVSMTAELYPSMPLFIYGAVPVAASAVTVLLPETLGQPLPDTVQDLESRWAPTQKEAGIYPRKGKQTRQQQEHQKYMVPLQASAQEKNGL
Protocol: To determine the inhibitory potency of pinocembrin on the hOAT1 and hOAT3 function, the IC50 of pinocembrin on the hOAT1- and hOAT3-mediated uptake of 6-carboxyfluorescein (6-CF), a fluorescent substrate of hOAT1 and hOAT3, was determined. […] Next, the inhibitory mechanism of pinocembrin was determined using a kinetic study.
The hOAT1-MDCK and hOAT3-MDCK cell monolayers were incubated at 37 °C with an uptake buffer containing 6-CF (10 µM), a fluorescent substrate of hOAT1 and hOAT3 [12], and pinocembrin (0–50 µM) for 10 min. Uptake was terminated by removing the uptake solution and washing four times with a cold buffer. The cell monolayers were lysed with 0.4 N NaOH for 30 min. The samples were transferred to 96-black well plates to measure the fluorescence intensity using a fluorescent plate reader (EnVision XCite 2105 Multimode Plate Reader, Packard BioScience, Wellesley, MA, USA) at excitation and emission wavelengths of 490 and 510, respectively. The IC50 of pinocembrin on hOAT1- and hOAT3-mediated 6-CF uptake was calculated in GraphPad Prism using sigmoidal concentration–response analysis using the equation Y = 100/(IC50/X)^HillSlope (X is the concentration, while Y is the normalized response). In addition, the estimated inhibitory constant (Ki) was calculated using the Cheng–Prusoff equation.
The hOAT1-MDCK and hOAT3-MDCK cell monolayers were incubated with 6-CF at increasing concentrations (0 to 100 µM) and in the absence or presence of 5 µM pinocembrin for 10 min. The kinetic parameters of 6-CF transport by hOAT1 and hOAT3 in the presence of pinocembrin were determined using nonlinear regression analysis to fit the Michaelis–Menten kinetic equation: V=Vmax[S]/Km+[S] where V is the rate of 6-CF transport, Vmax is the maximum rate of 6-CF transport, Km is the 6-CF concentration that results in half the maximum transport (Michaelis–Menten constant), and [S] is the concentration of 6-CF in the transport reaction.

hOAT3-MDCK cells = assay: Cell viability assay (MTT) in hOAT3-MDCK cells; type: cell-based, canine; details: pinocembrin 1, 10 and 50 μM, compared to vehicle-treated cells
Protocol: The hOAT1-MDCK cells and hOAT3-MDCK cells were treated with 1, 10, and 50 μM pinocembrin for 24 h, followed by a measurement of ^3H-PAH and ^3H-estrone sulfate cellular accumulation. […] The inhibitory effect of pinocembrin occurred in a concentration-dependent manner.
We determined whether the inhibitory effect of pinocembrin on hOAT1 and hOAT3. We studied whether pinocembrin could reduce the renal toxicity of tenofovir, a substrate of hOAT1 and hOAT3 known for inducing renal tubular dysfunction.
The confluent cells in 96-well plates were treated with pinocembrin for 48 h at 37 °C. After that, the cells were incubated with 0.5 mg/mL MTT solution for four hours. The MTT solution was removed, and DMSO (100 µL) was added to dissolve the crystal formazan. The formazan content was detected at a wavelength of 570 nm using a microplate reader. Cell viability was reported as a percentage of the vehicle-treated cells.

CYP2C19 = target: T3, CYP2C19 (Homo sapiens, UniProt P33261); assay: Cell-free CYP450 inhibition assay, CYP2C19; type: biochemical; details: cell-free fluorescent probe assay
T3 construct: purchased Life Technologies
Protocol: To determine whether pinocembrin influences the catalytic activity of CYP450 enzymes, fluorescent probe reaction assays were performed using varying concentrations of pinocembrin. […] In addition, molecular docking was conducted to better understand the binding mode and interactions between pinocembrin and human CYP2C19.
The CYP450 inhibitory activity of pinocembrin was determined using a P450 screening kit (Life Technologies; Carlsbad, CA, USA). Varied concentrations of pinocembrin were prepared in methanol. […] The fluorescence intensities were monitored every minute for 60 min at room temperature. The percentage of inhibition was calculated according to the following equation: % Inhibition=(1−X−B/A−B)×100% where X is the fluorescence intensity observed in the presence of pinocembrin.

OATP2B1 = test system: OATP2B1; design: method as in PMID 28745105; details: transfected renal cells; read-out: IC50 on OATP2B1-mediated rosuvastatin uptake; cited from earlier work
P-gp = details: cited from earlier work

T3 sequence (P33261 whole entry): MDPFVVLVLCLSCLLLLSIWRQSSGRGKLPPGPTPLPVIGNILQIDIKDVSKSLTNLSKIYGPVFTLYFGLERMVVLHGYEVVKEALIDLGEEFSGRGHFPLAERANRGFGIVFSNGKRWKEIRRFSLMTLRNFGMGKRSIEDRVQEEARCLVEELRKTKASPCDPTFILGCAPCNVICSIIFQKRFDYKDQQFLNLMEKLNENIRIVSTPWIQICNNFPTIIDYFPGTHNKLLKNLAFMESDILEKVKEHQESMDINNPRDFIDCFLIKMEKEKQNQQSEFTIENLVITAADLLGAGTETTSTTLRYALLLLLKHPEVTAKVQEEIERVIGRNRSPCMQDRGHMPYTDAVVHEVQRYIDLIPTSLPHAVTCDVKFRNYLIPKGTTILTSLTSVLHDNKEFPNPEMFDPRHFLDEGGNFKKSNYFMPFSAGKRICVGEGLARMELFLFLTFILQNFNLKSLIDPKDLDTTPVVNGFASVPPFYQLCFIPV
T1 sequence (Q9UNQ0 whole entry): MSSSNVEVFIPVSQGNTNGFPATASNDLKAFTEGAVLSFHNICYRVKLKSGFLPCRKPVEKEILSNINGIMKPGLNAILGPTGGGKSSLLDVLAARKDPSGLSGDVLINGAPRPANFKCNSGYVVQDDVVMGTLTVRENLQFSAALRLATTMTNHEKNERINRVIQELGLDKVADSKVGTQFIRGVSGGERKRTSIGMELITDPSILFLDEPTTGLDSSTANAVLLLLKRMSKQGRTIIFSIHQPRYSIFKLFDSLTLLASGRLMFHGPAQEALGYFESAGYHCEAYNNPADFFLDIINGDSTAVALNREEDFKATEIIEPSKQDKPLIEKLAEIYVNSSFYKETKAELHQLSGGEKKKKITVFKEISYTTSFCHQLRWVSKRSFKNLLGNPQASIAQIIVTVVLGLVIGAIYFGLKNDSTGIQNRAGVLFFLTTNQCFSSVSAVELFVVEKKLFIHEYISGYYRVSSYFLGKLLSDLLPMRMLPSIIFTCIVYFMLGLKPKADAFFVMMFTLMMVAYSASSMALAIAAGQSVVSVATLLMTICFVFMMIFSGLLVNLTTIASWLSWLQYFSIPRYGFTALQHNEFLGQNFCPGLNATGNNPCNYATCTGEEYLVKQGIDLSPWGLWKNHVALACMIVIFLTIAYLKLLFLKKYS

Compound: O=C1C[C@@H](c2ccccc2)Oc2cc(O)cc(O)c21 [pinocembrin]
- transport of 3H-estrone sulfate from the apical to basolateral side (BCRP): did not affect
- Vmax of hOAT1-mediated 6-CF uptake, With Pinocembrin (hOAT1; 5 μM pinocembrin, 6-CF up to 100 μM, hOAT1-MDCK cells): 6.03 ± 1.02 nmol/min/cm^2
- IC50 (hOAT1; hOAT1-MDCK cells, 6-CF 10 µM, mean ± S.D., three experiments): 1.47 ± 0.87 µM
- Ki (hOAT1; hOAT1-MDCK cells, estimated with the Cheng–Prusoff equation): 0.81 ± 0.12 µM
- inhibitory mechanism on hOAT1 transport function (hOAT1; kinetic study, 5 μM pinocembrin: Km increased, Vmax unchanged): competitively
- cell viability (hOAT3-MDCK cells): did not affect cell viability
- IC50 (CYP2C19; BACULOSOMES): 4.5 µM
- IC50 at 60 min (CYP2C19; human, CYP2C19 BACULOSOMES (cell-free recombinant enzyme)): 4.49 µM
- IC50 (OATP2B1): 8.9 µM
- effect on the P-gp in the blood–brain barrier (BBB) (P-gp): little effect
- effect on the function of P-gp (P-gp): did not inhibit
